Experimental data from ChEMBL document CHEMBL3580564, “Semisynthetic Studies on and Biological Evaluation of N-Methyllaurotetanine Analogues as Ligands for 5-HT Receptors” (J Nat Prod, 2015).

Assays:
[1] = target: Mu-type opioid receptor (Homo sapiens) (UniProt P35372); assay: Displacement of [3H]DAMGO from human recombinant MOR expressed in HEK cell membranes by radioligand binding assay; conditions: HEK293, concentration not given here
[2] = target: Translocator protein (Rattus norvegicus) (UniProt P16257); assay: Displacement of [3H]PK11195 from rat brain PBR by radioligand binding assay; conditions: concentration not given here
[3] = target: Sigma non-opioid intracellular receptor 1 (Cavia porcellus) (UniProt Q60492); assay: Binding affinity to guinea pig sigma1 receptor by radioligand binding assay; conditions: concentration not given here
Sigma 2 receptor = assay: Displacement of [3H]DTG from human recombinant sigma2 receptor by radioligand binding assay; conditions: concentration not given here
[4] = target: 5-hydroxytryptamine receptor 2C (Homo sapiens, UniProt P28335); assay: Displacement of [3H]mesulergine from human recombinant 5-HT2C receptor expressed in Flp-IN HEK cell membranes by radioligand binding assay; parameters: species or system HEK293
[5] = target: Alpha-1B adrenergic receptor (Homo sapiens, UniProt P35368); assay: Displacement of [3H]prazosin from human recombinant adrenergic alpha1B receptor expressed in HEKT cell membranes by radioligand binding assay
[6] = target: Alpha-2C adrenergic receptor (Homo sapiens, UniProt P18825); assay: Displacement of [3H]rauwolscine from human recombinant adrenergic alpha2C receptor expressed in MDCK cell membranes by radioligand binding assay
[7] = target: Beta-2 adrenergic receptor (Homo sapiens, UniProt P07550); assay: Displacement of [3H]CGP12177 from human recombinant adrenergic beta2 receptor expressed in CHO Flp-In cell membranes by radioligand binding assay
D(3) dopamine receptor = D(3) dopamine receptor (Homo sapiens, UniProt P35462); assay: Displacement of [3H]N-methylspiperone from human recombinant dopamine D3 receptor expressed in HEKT cell membranes by radioligand binding assay
[8] = target: Sodium-dependent dopamine transporter (Homo sapiens, UniProt Q01959); assay: Displacement of [3H]WIN35428 from human recombinant DAT expressed in HEK cell membranes by radioligand binding assay; parameters: species or system HEK293
Chain of Sodium-dependent dopamine transporter (Q01959 whole entry): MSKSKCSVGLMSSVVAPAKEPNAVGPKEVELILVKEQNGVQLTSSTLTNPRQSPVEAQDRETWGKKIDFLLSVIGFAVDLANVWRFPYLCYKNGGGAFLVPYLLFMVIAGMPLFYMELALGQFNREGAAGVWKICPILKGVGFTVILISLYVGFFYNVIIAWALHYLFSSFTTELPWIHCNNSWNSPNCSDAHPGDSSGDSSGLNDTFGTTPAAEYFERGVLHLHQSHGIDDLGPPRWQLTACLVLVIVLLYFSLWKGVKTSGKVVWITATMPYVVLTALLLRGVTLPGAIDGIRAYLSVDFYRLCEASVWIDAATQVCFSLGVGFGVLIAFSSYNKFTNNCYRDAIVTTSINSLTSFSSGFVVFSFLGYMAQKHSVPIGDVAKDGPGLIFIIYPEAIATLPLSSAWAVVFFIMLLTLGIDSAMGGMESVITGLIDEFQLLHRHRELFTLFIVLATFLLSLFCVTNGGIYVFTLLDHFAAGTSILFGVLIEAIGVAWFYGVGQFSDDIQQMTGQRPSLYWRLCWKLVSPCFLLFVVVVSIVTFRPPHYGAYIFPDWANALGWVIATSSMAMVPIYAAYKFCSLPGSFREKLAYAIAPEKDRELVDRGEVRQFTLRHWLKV

[9] = target: Sodium-dependent noradrenaline transporter (Homo sapiens, UniProt P23975); assay: Displacement of [3H]nisoxetine from human recombinant NET expressed in HEK cell membranes by radioligand binding assay; parameters: species or system HEK293
[10] = target: Sodium-dependent serotonin transporter (Homo sapiens, UniProt P31645); assay: Displacement of [3H]citalopram from human recombinant SERT expressed in HEK cell membranes by radioligand binding assay; parameters: species or system HEK293
Homo sapiens = species on record: Homo sapiens; assay: Selectivity index, ratio of Ki for human recombinant 5-HT1A receptor to Ki for human recombinant 5-HT7 receptor
[11] = target: 5-hydroxytryptamine receptor 1E (Homo sapiens) (UniProt P28566); assay: Displacement of [3H]5-HT from human recombinant 5-HT1E receptor expressed in HEK cell membranes by radioligand binding assay; conditions: HEK293, concentration not given here
D(1A) dopamine receptor = D(1A) dopamine receptor (Homo sapiens, UniProt P21728); assay: Displacement of [3H]SCH23390 from human recombinant dopamine D1 receptor expressed in HEKT cell membranes by radioligand binding assay
[12] = target: 5-hydroxytryptamine receptor 7 (Homo sapiens, UniProt P34969); assay: Displacement of [3H]LSD from human recombinant 5-HT7 receptor expressed in HEK cell membranes by radioligand binding assay; parameters: species or system HEK293
[13] = target: 5-hydroxytryptamine receptor 6 (Homo sapiens, UniProt P50406); assay: Displacement of [3H]LSD from human recombinant 5-HT6 receptor expressed in HEK cell membranes by radioligand binding assay; parameters: species or system HEK293
Chain of 5-hydroxytryptamine receptor 6 (P50406 whole entry): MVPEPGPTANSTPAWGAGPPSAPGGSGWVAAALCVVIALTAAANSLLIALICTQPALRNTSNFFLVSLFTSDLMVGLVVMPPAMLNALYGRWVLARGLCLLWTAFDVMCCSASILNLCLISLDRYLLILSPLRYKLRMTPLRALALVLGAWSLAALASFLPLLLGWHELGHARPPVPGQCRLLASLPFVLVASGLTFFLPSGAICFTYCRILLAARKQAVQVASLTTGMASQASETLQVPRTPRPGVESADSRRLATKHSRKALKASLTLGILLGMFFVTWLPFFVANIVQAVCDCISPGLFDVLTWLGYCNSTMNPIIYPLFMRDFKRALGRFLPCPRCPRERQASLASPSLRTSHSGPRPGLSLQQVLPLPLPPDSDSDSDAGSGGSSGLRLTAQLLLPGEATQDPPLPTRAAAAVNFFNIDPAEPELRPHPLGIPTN

[14] = target: 5-hydroxytryptamine receptor 5A (Homo sapiens, UniProt P47898); assay: Displacement of [3H]LSD from human recombinant 5-HT5A receptor expressed in Flp-In CHO cell membranes by radioligand binding assay
[15] = target: 5-hydroxytryptamine receptor 2B (Homo sapiens, UniProt P41595); assay: Displacement of [3H]LSD from human recombinant 5-HT2B receptor expressed in HEK cell membranes by radioligand binding assay; parameters: species or system HEK293
Chain of 5-hydroxytryptamine receptor 2B (P41595 whole entry): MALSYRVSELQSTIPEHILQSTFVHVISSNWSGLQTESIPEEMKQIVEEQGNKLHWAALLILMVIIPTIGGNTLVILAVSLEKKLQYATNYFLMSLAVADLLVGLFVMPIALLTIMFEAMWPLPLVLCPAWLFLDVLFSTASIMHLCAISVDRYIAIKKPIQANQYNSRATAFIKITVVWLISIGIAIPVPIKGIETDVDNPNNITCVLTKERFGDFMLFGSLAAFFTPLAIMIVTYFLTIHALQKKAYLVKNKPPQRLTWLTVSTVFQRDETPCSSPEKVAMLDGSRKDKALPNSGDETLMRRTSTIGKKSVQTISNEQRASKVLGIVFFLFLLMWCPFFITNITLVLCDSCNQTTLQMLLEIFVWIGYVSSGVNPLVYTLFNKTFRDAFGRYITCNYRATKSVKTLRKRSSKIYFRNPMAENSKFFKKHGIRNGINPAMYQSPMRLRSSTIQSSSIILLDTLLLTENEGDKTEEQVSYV

[16] = target: T1, 5-hydroxytryptamine receptor 1A (Homo sapiens, UniProt P08908); assay: Displacement of [3H]Way100635 from human recombinant 5-HT1A receptor expressed in CHO cell membranes by radioligand binding assay
T1 sequence (P08908 whole entry): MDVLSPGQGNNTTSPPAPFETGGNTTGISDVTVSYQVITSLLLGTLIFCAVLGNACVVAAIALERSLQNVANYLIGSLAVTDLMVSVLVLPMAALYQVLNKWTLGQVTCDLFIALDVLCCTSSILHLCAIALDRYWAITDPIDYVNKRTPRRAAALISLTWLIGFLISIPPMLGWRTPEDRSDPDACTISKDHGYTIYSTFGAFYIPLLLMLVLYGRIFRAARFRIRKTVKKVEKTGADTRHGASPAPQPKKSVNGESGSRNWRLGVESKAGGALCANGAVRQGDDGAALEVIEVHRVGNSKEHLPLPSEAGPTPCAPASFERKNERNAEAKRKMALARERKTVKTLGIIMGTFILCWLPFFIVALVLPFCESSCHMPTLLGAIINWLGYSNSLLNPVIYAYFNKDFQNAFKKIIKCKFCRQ

[17] = target: 5-hydroxytryptamine receptor 3A (Homo sapiens) (UniProt P46098); assay: Displacement of [3H]GR65630 from human recombinant 5-HT3 receptor expressed in HEKT cell membranes by radioligand binding assay; conditions: concentration not given here
Chain of 5-hydroxytryptamine receptor 3A (Homo sapiens) (P46098 whole entry): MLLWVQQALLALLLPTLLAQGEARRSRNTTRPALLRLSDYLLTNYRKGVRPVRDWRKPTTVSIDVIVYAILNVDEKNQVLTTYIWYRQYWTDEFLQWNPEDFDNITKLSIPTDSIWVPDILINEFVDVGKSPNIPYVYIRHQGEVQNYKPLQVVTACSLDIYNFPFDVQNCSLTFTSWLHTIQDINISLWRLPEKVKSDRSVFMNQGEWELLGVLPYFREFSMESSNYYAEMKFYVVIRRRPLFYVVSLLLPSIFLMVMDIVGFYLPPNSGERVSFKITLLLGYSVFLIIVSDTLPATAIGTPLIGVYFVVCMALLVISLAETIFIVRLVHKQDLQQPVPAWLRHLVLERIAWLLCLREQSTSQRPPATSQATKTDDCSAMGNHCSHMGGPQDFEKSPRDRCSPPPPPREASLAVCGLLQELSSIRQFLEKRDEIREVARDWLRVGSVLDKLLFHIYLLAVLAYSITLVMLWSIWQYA

[18] = target: Alpha-1A adrenergic receptor (Homo sapiens) (UniProt P35348); assay: Displacement of [3H]prazosin from human recombinant adrenergic alpha1A receptor by radioligand binding assay; conditions: concentration not given here
[19] = target: Alpha-1D adrenergic receptor (Homo sapiens) (UniProt P25100); assay: Displacement of [3H]prazosin from human recombinant adrenergic alpha1D receptor by radioligand binding assay; conditions: concentration not given here
Chain of Alpha-1D adrenergic receptor (Homo sapiens) (P25100 whole entry): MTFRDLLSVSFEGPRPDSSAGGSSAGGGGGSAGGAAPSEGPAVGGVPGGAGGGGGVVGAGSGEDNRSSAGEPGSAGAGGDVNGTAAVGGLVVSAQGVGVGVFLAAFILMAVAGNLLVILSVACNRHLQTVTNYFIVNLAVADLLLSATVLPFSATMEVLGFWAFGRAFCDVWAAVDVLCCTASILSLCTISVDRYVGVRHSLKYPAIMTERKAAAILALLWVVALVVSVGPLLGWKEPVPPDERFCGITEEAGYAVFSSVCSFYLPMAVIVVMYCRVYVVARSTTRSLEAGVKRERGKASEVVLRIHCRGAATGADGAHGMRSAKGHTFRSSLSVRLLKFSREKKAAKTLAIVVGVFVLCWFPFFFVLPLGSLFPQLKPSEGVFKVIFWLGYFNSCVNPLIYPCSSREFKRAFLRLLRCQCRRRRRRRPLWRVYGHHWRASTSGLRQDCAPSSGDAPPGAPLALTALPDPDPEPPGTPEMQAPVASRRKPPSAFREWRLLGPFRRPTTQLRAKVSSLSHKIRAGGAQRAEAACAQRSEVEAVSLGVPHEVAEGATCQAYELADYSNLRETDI

[20] = target: Alpha-2B adrenergic receptor (Homo sapiens) (UniProt P18089); assay: Displacement of [3H]rauwolscine from human recombinant adrenergic alpha2B receptor expressed in HEKT cell membranes by radioligand binding assay; conditions: concentration not given here
Chain of Alpha-2B adrenergic receptor (Homo sapiens) (P18089 whole entry): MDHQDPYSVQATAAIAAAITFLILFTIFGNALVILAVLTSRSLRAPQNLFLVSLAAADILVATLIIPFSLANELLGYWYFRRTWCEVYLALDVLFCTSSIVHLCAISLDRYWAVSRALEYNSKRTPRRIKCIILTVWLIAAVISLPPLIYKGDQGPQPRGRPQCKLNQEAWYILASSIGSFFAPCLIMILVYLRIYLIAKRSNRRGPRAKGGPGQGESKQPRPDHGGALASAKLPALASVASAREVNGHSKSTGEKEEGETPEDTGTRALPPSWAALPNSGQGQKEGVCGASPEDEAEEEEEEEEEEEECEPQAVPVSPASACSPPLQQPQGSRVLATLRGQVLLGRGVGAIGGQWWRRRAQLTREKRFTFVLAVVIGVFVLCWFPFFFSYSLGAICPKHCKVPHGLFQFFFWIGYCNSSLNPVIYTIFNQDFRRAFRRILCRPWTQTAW

Rattus norvegicus [21] = species on record: Rattus norvegicus; assay: Displacement of [3H]flunitrazepam from rat brain benzodiazepine receptor by radioligand binding assay; conditions: concentration not given here
[22] = target: D(2) dopamine receptor (Homo sapiens) (UniProt P14416); assay: Displacement of [3H]N-methylspiperone from human recombinant dopamine D2 receptor expressed in fibroblasts cell membranes by radioligand binding assay; conditions: Fibroblast, concentration not given here
[23] = target: D(4) dopamine receptor (Homo sapiens) (UniProt P21917); assay: Displacement of [3H]N-methylspiperone from human recombinant dopamine D4 receptor by radioligand binding assay; conditions: concentration not given here
[24] = target: D(1B) dopamine receptor (Homo sapiens) (UniProt P21918); assay: Displacement of [3H]SCH23390 from human recombinant dopamine D5 receptor expressed in HEKT cell membranes by radioligand binding assay; conditions: concentration not given here
[25] = target: Delta-type opioid receptor (Homo sapiens) (UniProt P41143); assay: Displacement of [3H]DADLE from human recombinant DOR expressed in HEK cell membranes by radioligand binding assay; conditions: HEK293, concentration not given here
Chain of Delta-type opioid receptor (Homo sapiens) (P41143 whole entry): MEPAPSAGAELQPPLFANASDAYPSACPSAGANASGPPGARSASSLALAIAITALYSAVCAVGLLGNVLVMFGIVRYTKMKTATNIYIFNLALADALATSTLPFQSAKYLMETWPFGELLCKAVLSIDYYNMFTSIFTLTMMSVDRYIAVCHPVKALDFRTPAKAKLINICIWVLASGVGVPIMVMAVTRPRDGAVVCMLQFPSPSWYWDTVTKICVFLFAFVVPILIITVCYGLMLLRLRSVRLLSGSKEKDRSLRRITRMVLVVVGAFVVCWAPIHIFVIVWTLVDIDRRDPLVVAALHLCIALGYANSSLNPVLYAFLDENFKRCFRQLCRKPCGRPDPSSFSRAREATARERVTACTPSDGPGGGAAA

Rattus norvegicus [26] = species on record: Rattus norvegicus; assay: Displacement of [3H]muscimol from rat brain GABAA receptor by radioligand binding assay; conditions: concentration not given here
[27] = target: Histamine H1 receptor (Homo sapiens) (UniProt P35367); assay: Displacement of [3H]pyrilamine from human recombinant histamine H1 receptor expressed in HEK cell membranes by radioligand binding assay; conditions: HEK293, concentration not given here
Chain of Histamine H1 receptor (Homo sapiens) (P35367 whole entry): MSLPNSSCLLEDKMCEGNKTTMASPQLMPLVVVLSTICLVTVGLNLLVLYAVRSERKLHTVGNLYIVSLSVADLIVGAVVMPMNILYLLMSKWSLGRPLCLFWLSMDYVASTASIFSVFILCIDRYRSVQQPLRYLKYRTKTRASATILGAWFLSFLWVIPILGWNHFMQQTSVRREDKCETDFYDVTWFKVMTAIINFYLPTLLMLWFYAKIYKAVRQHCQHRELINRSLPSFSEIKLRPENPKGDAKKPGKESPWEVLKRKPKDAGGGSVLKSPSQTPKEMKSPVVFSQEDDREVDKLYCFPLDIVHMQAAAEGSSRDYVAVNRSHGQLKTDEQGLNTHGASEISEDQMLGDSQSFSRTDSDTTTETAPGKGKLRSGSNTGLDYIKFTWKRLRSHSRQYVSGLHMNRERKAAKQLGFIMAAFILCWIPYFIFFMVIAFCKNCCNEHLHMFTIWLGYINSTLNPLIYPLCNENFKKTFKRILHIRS

[28] = target: Histamine H3 receptor (Homo sapiens) (UniProt Q9Y5N1); assay: Displacement of [3H]alpha-methylhistamine from human recombinant histamine H3 receptor expressed in HEKFlp-In cell membranes by radioligand binding assay; conditions: concentration not given here
[29] = target: Histamine H4 receptor (Homo sapiens) (UniProt Q9H3N8); assay: Displacement of [3H]histamine from human recombinant histamine H4 receptor by radioligand binding assay; conditions: concentration not given here
[30] = target: Kappa-type opioid receptor (Homo sapiens) (UniProt P41145); assay: Displacement of [3H]U69593 from human recombinant KOR expressed in HEK cell membranes by radioligand binding assay; conditions: HEK293, concentration not given here
[31] = target: Muscarinic acetylcholine receptor M1 (Homo sapiens) (UniProt P11229); assay: Displacement of [3H]QNB/[3H]]NMS from human recombinant muscarinic M1 receptor expressed in CHO cell membranes by radioligand binding assay; conditions: concentration not given here
[32] = target: Muscarinic acetylcholine receptor M2 (Homo sapiens) (UniProt P08172); assay: Displacement of [3H]QNB/[3H]]NMS from human recombinant muscarinic M2 receptor expressed in CHO cell membranes by radioligand binding assay; conditions: concentration not given here
Chain of Muscarinic acetylcholine receptor M2 (Homo sapiens) (P08172 whole entry): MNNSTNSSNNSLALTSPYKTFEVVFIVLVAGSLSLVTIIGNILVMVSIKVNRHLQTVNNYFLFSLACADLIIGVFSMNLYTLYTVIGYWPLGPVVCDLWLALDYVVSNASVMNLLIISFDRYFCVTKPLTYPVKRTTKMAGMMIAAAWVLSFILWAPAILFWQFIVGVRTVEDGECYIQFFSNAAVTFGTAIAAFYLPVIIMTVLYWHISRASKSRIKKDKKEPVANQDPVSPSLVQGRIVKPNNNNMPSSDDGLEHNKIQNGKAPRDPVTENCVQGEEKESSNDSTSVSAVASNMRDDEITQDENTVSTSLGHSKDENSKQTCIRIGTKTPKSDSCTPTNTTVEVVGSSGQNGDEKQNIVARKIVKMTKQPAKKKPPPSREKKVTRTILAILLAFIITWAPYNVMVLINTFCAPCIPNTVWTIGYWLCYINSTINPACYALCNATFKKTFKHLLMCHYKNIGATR

[33] = target: Muscarinic acetylcholine receptor M3 (Homo sapiens) (UniProt P20309); assay: Displacement of [3H]QNB/[3H]]NMS from human recombinant muscarinic M3 receptor expressed in CHO cell membranes by radioligand binding assay; conditions: concentration not given here
[34] = target: Muscarinic acetylcholine receptor M4 (Homo sapiens) (UniProt P08173); assay: Displacement of [3H]QNB/[3H]]NMS from human recombinant muscarinic M4 receptor expressed in CHO cell membranes by radioligand binding assay; conditions: concentration not given here
[35] = target: Muscarinic acetylcholine receptor M5 (Homo sapiens) (UniProt P08912); assay: Displacement of [3H]QNB/[3H]]NMS from human recombinant muscarinic M5 receptor expressed in CHO cell membranes by radioligand binding assay; conditions: concentration not given here
Chain of Muscarinic acetylcholine receptor M5 (Homo sapiens) (P08912 whole entry): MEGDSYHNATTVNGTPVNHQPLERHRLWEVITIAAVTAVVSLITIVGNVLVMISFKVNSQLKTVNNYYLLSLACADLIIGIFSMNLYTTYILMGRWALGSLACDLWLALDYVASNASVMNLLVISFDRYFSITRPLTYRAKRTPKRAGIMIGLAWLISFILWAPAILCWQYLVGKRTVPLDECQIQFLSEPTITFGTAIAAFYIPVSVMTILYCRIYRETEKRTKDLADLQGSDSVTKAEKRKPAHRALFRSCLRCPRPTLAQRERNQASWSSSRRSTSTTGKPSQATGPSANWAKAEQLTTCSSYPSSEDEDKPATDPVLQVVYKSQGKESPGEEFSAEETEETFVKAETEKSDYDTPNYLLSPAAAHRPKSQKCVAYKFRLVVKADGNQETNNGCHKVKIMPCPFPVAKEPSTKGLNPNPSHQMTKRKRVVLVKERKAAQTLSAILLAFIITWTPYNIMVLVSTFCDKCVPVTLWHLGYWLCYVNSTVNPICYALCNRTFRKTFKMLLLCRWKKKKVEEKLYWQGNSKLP

COc1cc2c(cc1O)C[C@H]1c3c(cc(OC)c(OC)c3-2)CCN1C
inhibition [1]: < 50%
inhibition [2]: < 50%
inhibition [3]: < 50%
inhibition (Sigma 2 receptor): < 50%
Ki [4]: > 950 nM
Ki [5]: > 950 nM
Ki [6]: > 950 nM
Ki [7]: > 950 nM
Ki (D(3) dopamine receptor): > 950 nM
Ki [8]: > 950 nM
Ki [9]: > 950 nM
Ki [10]: > 950 nM
Ratio Ki (Homo sapiens): 16
inhibition [11]: < 50%
Ki (D(1A) dopamine receptor): 373 nM
Ki [12]: 20 nM
Ki [13]: 306 nM
Ki [14]: 566 nM
Ki [15]: 323 nM
Ki [16]: 314 nM
inhibition [17]: < 50%
inhibition [18]: < 50%
inhibition [19]: < 50%
inhibition [20]: < 50%
inhibition (Rattus norvegicus [21]): < 50%
inhibition [22]: < 50%
inhibition [23]: < 50%
inhibition [24]: < 50%
inhibition [25]: < 50%
inhibition (Rattus norvegicus [26]): < 50%
inhibition [27]: < 50%
inhibition [28]: < 50%
inhibition [29]: < 50%
inhibition [30]: < 50%
inhibition [31]: < 50%
inhibition [32]: < 50%
inhibition [33]: < 50%
inhibition [34]: < 50%
inhibition [35]: < 50%
